Test results from publication PMC2603005, “Structural insights into phenylethanolamines high-affinity binding site in NR2B from binding and molecular modeling studies” (Molecular Brain, 2008).
Read-outs that look alike come from different tables or passages of the source.

Tests used:
[1] = biological target: NR1-1a/NR2B receptors (Rattus norvegicus, UniProt P35439+Q00960); assay: cell-based
Protocol: cRNA for rat NR1-1a (hereafter NR1) and NR2B were synthesized in vitro and injected (5–10 ng) into stage V-VI Xenopus laevis oocytes, isolated as previously described [22, 26, 58]. Two-electrode voltage-clamp current recordings were made 2–7 days post injection. The recording solution contained (in mM) 90 NaCl, 3 KCl, 10 HEPES, 0.5 BaCl2, 0.01 EDTA, 0.05 glycine (23°C); pH was adjusted to 7.3 with NaOH. EDTA (10 μM) was added to chelate contaminant extracellular divalent ions, including trace amounts of Zn^2+. Solution exchange was computer controlled through an 8-modular valve positioner (Digital MVP Valve, Hamilton Company, Reno, NV). Voltage and current electrodes were filled with 0.3 and 3.0 M KCl, respectively, and current responses recorded at a holding potential of -40 mV. […] Data were pooled among oocytes and mean composite concentration-effect curve was fitted by the following equation:

[2] = biological target: T1, 6 × His-ATD2B (amino-terminal domain of NR2B subunit), wild type (Rattus norvegicus, UniProt Q00960); assay: biochemical
Protocol: DLS measurements were made with DynaPro (Protein Solutions) and CD spectra were measured at 25°C on a Jasco J-715 Spectropolarimeter equipped with a 0.1 cm path-length cuvette (Jasco Corporation, Tokyo, Japan) as described previously [41]. For the CD assays, the refolded protein was concentrated to 1 mg/ml using Vivaspin 2 ml concentrator (Vivascience). […] The final change of assay volume was < 3% for all ligands investigated. The CD spectra of the wild-type and mutant 6 × His-ATD2B proteins in the absence and presence of a ligand were recorded from 190 to 250 nm. The CD spectrum of Buffer 2 was subtracted from all the CD spectra obtained. […] All experiments were performed using at least two separate batches of induced and refolded 6 × His-ATD2B proteins (both wild-type and mutants), each batch in duplicates or triplicates. The dose-dependent binding curves of ligands to 6 × His-ATD2B were fitted by the following equation:
Y = Bmax [ligand]/(KD + [ligand])
where Y is the shift in ellipticity, [ligand] is the concentration of ligand investigated and KD is the dissociation equilibrium constant.
The experiment data were analyzed by nonlinear curve fitting (ORIGIN7, USA). All pooled data were expressed as mean ± SEM.

[3] = biological target: T1, 6 × His-ATD2B (amino-terminal domain of NR2B subunit), wild type; assay: CD ligand displacement: RO25,6981 displacing saturating ifenprodil on 6 × His-ATD2B; type: binding; parameters: representation of the ATD2B construct (Arg27 to Arg393) with 6xHis-tag and linker; made in house
Protocol: DLS measurements were made with DynaPro (Protein Solutions) and CD spectra were measured at 25°C on a Jasco J-715 Spectropolarimeter equipped with a 0.1 cm path-length cuvette (Jasco Corporation, Tokyo, Japan) as described previously. For the CD assays, the refolded protein was concentrated to 1 mg/ml using Vivaspin 2 ml concentrator (Vivascience). […] The CD spectra of the wild-type and mutant 6 × His-ATD2B proteins in the absence and presence of a ligand were recorded from 190 to 250 nm. The CD spectrum of Buffer 2 was subtracted from all the CD spectra obtained. […] All experiments were performed using at least two separate batches of induced and refolded 6 × His-ATD2B proteins (both wild-type and mutants), each batch in duplicates or triplicates. The dose-dependent binding curves of ligands to 6 × His-ATD2B were fitted by the following equation: […]

[4] = biological target: NR1/NR2B; parameters: method as in PMID 15769547, PMID 15056006; settings: NR1/NR2B transfected HEK293 and mouse L(tk-) cell line; cited from earlier work
[5] = biological target: rat brain cortex; settings: [3H]ifenprodil binding; cited from earlier work
[6] = test system: NR1/NR2B(F176A); parameters: method as in PMID 14534359; settings: F176A mutation, HEK293 membranes; cited from earlier work
[7] = test system: NR1/NR2B(D101A); parameters: method as in PMID 14534359; settings: D101A mutation, HEK293 membranes; cited from earlier work

T1 sequence (Q00960 27-393): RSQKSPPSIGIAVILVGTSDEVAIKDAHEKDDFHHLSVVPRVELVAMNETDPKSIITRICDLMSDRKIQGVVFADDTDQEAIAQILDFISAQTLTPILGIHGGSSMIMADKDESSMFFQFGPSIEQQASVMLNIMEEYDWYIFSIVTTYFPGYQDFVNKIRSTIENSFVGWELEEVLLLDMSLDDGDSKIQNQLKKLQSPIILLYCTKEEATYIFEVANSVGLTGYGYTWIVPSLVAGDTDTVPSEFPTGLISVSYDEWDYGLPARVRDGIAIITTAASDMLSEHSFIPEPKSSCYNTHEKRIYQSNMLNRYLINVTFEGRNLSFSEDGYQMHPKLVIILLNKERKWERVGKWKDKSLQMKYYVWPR
Chain of NR1-1a/NR2B receptors (Q00960 27-1482, other chains not shown): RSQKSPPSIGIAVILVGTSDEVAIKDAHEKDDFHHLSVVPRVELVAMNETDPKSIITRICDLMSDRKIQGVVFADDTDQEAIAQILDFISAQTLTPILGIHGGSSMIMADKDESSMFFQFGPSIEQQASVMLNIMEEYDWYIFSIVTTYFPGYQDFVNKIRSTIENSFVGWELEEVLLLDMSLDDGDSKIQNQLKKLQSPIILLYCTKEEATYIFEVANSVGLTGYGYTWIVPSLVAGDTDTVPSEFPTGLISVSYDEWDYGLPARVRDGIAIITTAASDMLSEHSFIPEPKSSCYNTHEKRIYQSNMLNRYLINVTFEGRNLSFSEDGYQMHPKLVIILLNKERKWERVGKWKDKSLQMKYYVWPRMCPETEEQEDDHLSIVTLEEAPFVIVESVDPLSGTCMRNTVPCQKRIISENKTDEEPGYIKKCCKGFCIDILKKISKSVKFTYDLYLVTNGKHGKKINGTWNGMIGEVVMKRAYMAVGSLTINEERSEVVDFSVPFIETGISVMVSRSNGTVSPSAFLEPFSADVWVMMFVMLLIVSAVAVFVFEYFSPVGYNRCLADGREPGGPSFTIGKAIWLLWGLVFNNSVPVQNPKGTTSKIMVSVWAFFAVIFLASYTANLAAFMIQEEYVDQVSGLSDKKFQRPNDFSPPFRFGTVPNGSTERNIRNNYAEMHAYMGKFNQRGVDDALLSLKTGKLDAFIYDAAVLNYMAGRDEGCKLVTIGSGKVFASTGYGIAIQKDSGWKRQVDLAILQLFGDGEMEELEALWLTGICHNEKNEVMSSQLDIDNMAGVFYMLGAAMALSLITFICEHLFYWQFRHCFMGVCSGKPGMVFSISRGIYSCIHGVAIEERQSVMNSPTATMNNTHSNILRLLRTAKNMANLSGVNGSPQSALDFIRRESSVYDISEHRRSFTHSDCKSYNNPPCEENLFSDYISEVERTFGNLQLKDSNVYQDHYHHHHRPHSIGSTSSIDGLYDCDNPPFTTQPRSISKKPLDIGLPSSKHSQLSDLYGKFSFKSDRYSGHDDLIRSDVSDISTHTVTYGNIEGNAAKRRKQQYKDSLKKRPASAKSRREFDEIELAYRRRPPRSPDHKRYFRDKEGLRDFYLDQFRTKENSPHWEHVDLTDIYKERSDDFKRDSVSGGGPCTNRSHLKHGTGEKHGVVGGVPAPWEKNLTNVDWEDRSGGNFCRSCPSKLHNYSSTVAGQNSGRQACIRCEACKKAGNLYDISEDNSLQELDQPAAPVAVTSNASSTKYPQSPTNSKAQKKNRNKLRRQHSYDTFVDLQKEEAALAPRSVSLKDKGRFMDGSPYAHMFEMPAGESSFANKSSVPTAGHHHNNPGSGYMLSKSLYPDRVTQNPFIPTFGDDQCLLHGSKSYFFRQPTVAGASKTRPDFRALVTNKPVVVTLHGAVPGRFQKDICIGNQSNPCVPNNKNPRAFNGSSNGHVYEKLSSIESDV

C[C@@H](CN1CCC(Cc2ccccc2)CC1)[C@@H](O)c1ccc(O)cc1 [RO25,6981]
IC50 [1]: 59 ± 1 nM | Kd ([2]; Buffer-9 refolded protein, CD at 25°C, mean ± S.E., n = 5): 7 ± 3 nM | Kd ([2]; Buffer-12 refolded protein, CD at 25°C, n = 5): 4 ± 1 nM | Kd ([2]; Buffer-13 refolded protein, CD): 4 ± 2 nM | Ki ([3]; Affinity (Ki) on displacing ifenprodil): 4 ± 1 nM | Ki ([3]; Affinity (Ki) on displacing ifenprodil, Buffer-12 refolded protein, in presence of saturating 5 μM ifenprodil): 2 ± 1 nM | Ki ([3]; Affinity (Ki) on displacing ifenprodil, Buffer-13 refolded protein, in presence of saturating 5 μM ifenprodil): 3 ± 1 nM | Ki ([3]; range over Buffers -9, -12 and -13, n = 5 per buffer, read-out: Ki values): 2 to 4 nM

CC(C(O)c1ccc(O)cc1)N1CCC(Cc2ccccc2)CC1 (stereo not drawn) [[^3H]ifenprodil]
Kd [4]: 34 to 79 nM | Kd [5]: 36 nM

[^3H]RO25,6981
[3H]RO25,6981 binding to membranes [6]: complete loss | [3H]RO25,6981 binding to membranes [7]: complete loss
